The compounds below were run on BPH-1 (assay: cells). Conditions: Homo sapiens, BPH-1.
Assay type: functional, cell-based, Homo sapiens
Description: SANGER: Inhibition of human BPH-1 cell growth in a cell viability assay.

SMILES | IC50
CC1(C)CNc2cc(NC(=O)c3cccnc3NCc3ccncc3)ccc21 [MOTESANIB] | > 2000 nM

These compounds were tested on IGR-1 (assay: cells). Conditions: Homo sapiens, IGR-1.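 Note: growth inhibition of human IGR-1 cells, read out with a cell viability assay.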
Assay type: functional, cell-based, Homo sapiens
Description: SANGER: Inhibition of human IGR-1 cell growth in a cell viability assay.

SMILES | IC50
CC1(C)CNc2cc(NC(=O)c3cccnc3NCc3ccncc3)ccc21 [MOTESANIB] | > 2000 nM

These compounds were tested on NCI-H2170 (assay: cells). Conditions: Homo sapiens, NCI-H2170.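 Note: cell viability assay measuring growth inhibition of human NCI-H2170 cancer cells.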
Assay type: functional, cell-based, Homo sapiens
Description: SANGER: Inhibition of human NCI-H2170 cell growth in a cell viability assay.

SMILES | IC50
CC1(C)CNc2cc(NC(=O)c3cccnc3NCc3ccncc3)ccc21 [MOTESANIB] | > 2000 nM

These compounds were tested on BHT-101 (assay: cells). Conditions: Homo sapiens, BHT-101.
Assay type: functional, cell-based, Homo sapiens
Description: SANGER: Inhibition of human BHT-101 cell growth in a cell viability assay.

SMILES | IC50
CC1(C)CNc2cc(NC(=O)c3cccnc3NCc3ccncc3)ccc21 [MOTESANIB] | > 2000 nM

Each compound was assayed on SW1417 (assay: cells). Conditions: Homo sapiens, SW1417.
Assay type: functional, cell-based, Homo sapiens
Description: SANGER: Inhibition of human SW1417 cell growth in a cell viability assay.

SMILES | IC50
CC1(C)CNc2cc(NC(=O)c3cccnc3NCc3ccncc3)ccc21 [MOTESANIB] | > 2000 nM

These compounds were tested on Ca-Ski (assay: cells). Conditions: Homo sapiens, Ca-Ski.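 Note: cell viability assay measuring inhibition of Ca-Ski cell growth.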
Assay type: functional, cell-based, Homo sapiens
Description: SANGER: Inhibition of human Ca-Ski cell growth in a cell viability assay.

SMILES | IC50
CC1(C)CNc2cc(NC(=O)c3cccnc3NCc3ccncc3)ccc21 [MOTESANIB] | > 2000 nM

The compounds below were run on SW-620 (assay: cells). Conditions: Homo sapiens, SW-620.
Assay type: functional, cell-based, Homo sapiens
Description: SANGER: Inhibition of human SW620 cell growth in a cell viability assay.

SMILES | IC50
CC1(C)CNc2cc(NC(=O)c3cccnc3NCc3ccncc3)ccc21 [MOTESANIB] | > 2000 nM

These compounds were tested on SCC-4 (assay: cells). Conditions: Homo sapiens, SCC-4.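 Note: growth inhibition of human SCC-4 cells, read out as cell viability.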
Assay type: functional, cell-based, Homo sapiens
Description: SANGER: Inhibition of human SCC-4 cell growth in a cell viability assay.

SMILES | IC50
CC1(C)CNc2cc(NC(=O)c3cccnc3NCc3ccncc3)ccc21 [MOTESANIB] | > 2000 nM

What follows are compounds tested on KP-N-YN (assay: cells). Conditions: Homo sapiens, KP-N-YN.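 Note: growth inhibition of KP-N-YN cells, read out with a cell viability assay.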
Assay type: functional, cell-based, Homo sapiens
Description: SANGER: Inhibition of human KP-N-YN cell growth in a cell viability assay.

SMILES | IC50
CC1(C)CNc2cc(NC(=O)c3cccnc3NCc3ccncc3)ccc21 [MOTESANIB] | > 2000 nM

These compounds were tested on OAW-28 (assay: cells). Conditions: Homo sapiens, OAW-28.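 Note: growth inhibition of OAW-28 cells, read out with a cell viability assay.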
Assay type: functional, cell-based, Homo sapiens
Description: SANGER: Inhibition of human OAW-28 cell growth in a cell viability assay.

SMILES | IC50
CC1(C)CNc2cc(NC(=O)c3cccnc3NCc3ccncc3)ccc21 [MOTESANIB] | > 2000 nM

These compounds were tested on RCM-1 (assay: cells). Conditions: Homo sapiens, RCM-1.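 Note: growth inhibition of the RCM-1 line, determined with a cell viability readout.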
Assay type: functional, cell-based, Homo sapiens
Description: SANGER: Inhibition of human RCM-1 cell growth in a cell viability assay.

SMILES | IC50
CC1(C)CNc2cc(NC(=O)c3cccnc3NCc3ccncc3)ccc21 [MOTESANIB] | > 2000 nM

The compounds below were run on NY (assay: cells). Conditions: Homo sapiens, NY.
Assay type: functional, cell-based, Homo sapiens
Description: SANGER: Inhibition of human NY cell growth in a cell viability assay.

SMILES | IC50
CC1(C)CNc2cc(NC(=O)c3cccnc3NCc3ccncc3)ccc21 [MOTESANIB] | > 2000 nM

The compounds below were run on RD (assay: cells). Conditions: Homo sapiens, RD.
Assay type: functional, cell-based, Homo sapiens
Description: SANGER: Inhibition of human RD cell growth in a cell viability assay.

SMILES | IC50
CC1(C)CNc2cc(NC(=O)c3cccnc3NCc3ccncc3)ccc21 [MOTESANIB] | > 2000 nM

What follows are compounds tested on NCI-H2030 (assay: cells). Conditions: Homo sapiens, NCI-H2030.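 Note: growth inhibition of human NCI-H2030 cells, read out by a cell viability assay.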
Assay type: functional, cell-based, Homo sapiens
Description: SANGER: Inhibition of human NCI-H2030 cell growth in a cell viability assay.

SMILES | IC50
CC1(C)CNc2cc(NC(=O)c3cccnc3NCc3ccncc3)ccc21 [MOTESANIB] | > 2000 nM

Each compound was assayed on KNS-62 (assay: cells). Conditions: Homo sapiens, KNS-62.
Assay type: functional, cell-based, Homo sapiens
Description: SANGER: Inhibition of human KNS-62 cell growth in a cell viability assay.

SMILES | IC50
CC1(C)CNc2cc(NC(=O)c3cccnc3NCc3ccncc3)ccc21 [MOTESANIB] | > 2000 nM

These compounds were tested on RERF-LC-MS (assay: cells). Conditions: Homo sapiens, RERF-LC-MS.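 Note: growth inhibition of human RERF-LC-MS cells, read out by a cell viability assay.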
Assay type: functional, cell-based, Homo sapiens
Description: SANGER: Inhibition of human RERF-LC-MS cell growth in a cell viability assay.

SMILES | IC50
CC1(C)CNc2cc(NC(=O)c3cccnc3NCc3ccncc3)ccc21 [MOTESANIB] | > 2000 nM

What follows are compounds tested on HCC1954 (assay: cells). Conditions: Homo sapiens, HCC1954.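 Note: growth inhibition of human HCC1954 cells, read out with a cell viability assay.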
Assay type: functional, cell-based, Homo sapiens
Description: SANGER: Inhibition of human HCC1954 cell growth in a cell viability assay.

SMILES | IC50
CC1(C)CNc2cc(NC(=O)c3cccnc3NCc3ccncc3)ccc21 [MOTESANIB] | > 2000 nM

What follows are compounds tested on CAKI-1 (assay: cells). Conditions: Homo sapiens, CAKI-1.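 Note: growth inhibition of CAKI-1 cells, measured by a cell viability assay.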
Assay type: functional, cell-based, Homo sapiens
Description: SANGER: Inhibition of human CAKI-1 cell growth in a cell viability assay.

SMILES | IC50
CC1(C)CNc2cc(NC(=O)c3cccnc3NCc3ccncc3)ccc21 [MOTESANIB] | > 2000 nM

These compounds were tested on HOP-92 (assay: cells). Conditions: Homo sapiens, HOP-92.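 Note: cell viability readout, with IC50 reflecting inhibition of HOP-92 cell growth.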
Assay type: functional, cell-based, Homo sapiens
Description: SANGER: Inhibition of human HOP-92 cell growth in a cell viability assay.

SMILES | IC50
CC1(C)CNc2cc(NC(=O)c3cccnc3NCc3ccncc3)ccc21 [MOTESANIB] | > 2000 nM

These compounds were tested on NCI-H460 (assay: cells). Conditions: Homo sapiens, NCI-H460.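 Note: cell viability assay scoring growth inhibition of human NCI-H460 cells.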
Assay type: functional, cell-based, Homo sapiens
Description: SANGER: Inhibition of human NCI-H460 cell growth in a cell viability assay.

SMILES | IC50
CC1(C)CNc2cc(NC(=O)c3cccnc3NCc3ccncc3)ccc21 [MOTESANIB] | > 2000 nM

These compounds were tested on EFO-21 (assay: cells). Conditions: Homo sapiens, EFO-21.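 Note: growth inhibition of EFO-21 cells measured with a viability assay.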
Assay type: functional, cell-based, Homo sapiens
Description: SANGER: Inhibition of human EFO-21 cell growth in a cell viability assay.

SMILES | IC50
CC1(C)CNc2cc(NC(=O)c3cccnc3NCc3ccncc3)ccc21 [MOTESANIB] | > 2000 nM

What follows are compounds tested on SW13 (assay: cells). Conditions: Homo sapiens, SW13.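 Note: IC50 is inhibition of SW13 cell growth, read out with a cell viability assay.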
Assay type: functional, cell-based, Homo sapiens
Description: SANGER: Inhibition of human SW13 cell growth in a cell viability assay.

SMILES | IC50
CC1(C)CNc2cc(NC(=O)c3cccnc3NCc3ccncc3)ccc21 [MOTESANIB] | > 2000 nM

These compounds were tested on ZR-75-30 (assay: cells). Conditions: Homo sapiens, ZR-75-30.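 Note: growth inhibition of ZR-75-30 cells, measured with a cell viability readout.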
Assay type: functional, cell-based, Homo sapiens
Description: SANGER: Inhibition of human ZR-75-30 cell growth in a cell viability assay.

SMILES | IC50
CC1(C)CNc2cc(NC(=O)c3cccnc3NCc3ccncc3)ccc21 [MOTESANIB] | > 2000 nM

These compounds were tested on KYSE-150 cell line (assay: cells). Conditions: Homo sapiens, KYSE-150.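 Note: growth inhibition of human KYSE-150 cells, read out with a cell viability assay.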
Assay type: functional, cell-based, Homo sapiens
Description: SANGER: Inhibition of human KYSE-150 cell growth in a cell viability assay.

SMILES | IC50
CC1(C)CNc2cc(NC(=O)c3cccnc3NCc3ccncc3)ccc21 [MOTESANIB] | > 2000 nM

What follows are compounds tested on HMV-2 cell line (assay: cells). Conditions: Homo sapiens, HMV-2.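 Note: growth inhibition of HMV-II cells, read out with a cell viability assay.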
Assay type: functional, cell-based, Homo sapiens
Description: SANGER: Inhibition of human HMV-II cell growth in a cell viability assay.

SMILES | IC50
CC1(C)CNc2cc(NC(=O)c3cccnc3NCc3ccncc3)ccc21 [MOTESANIB] | > 2000 nM

Each compound was assayed on MDA-MB-415 (assay: cells). Conditions: Homo sapiens, MDA-MB-415.
Assay type: functional, cell-based, Homo sapiens

SMILES | IC50
CC1(C)CNc2cc(NC(=O)c3cccnc3NCc3ccncc3)ccc21 [MOTESANIB] | > 2000 nM

What follows are compounds tested on SAOS-2 (assay: cells). Conditions: Homo sapiens, SAOS-2.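 Note: growth inhibition of human Saos-2 cells determined by a cell viability assay.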
Assay type: functional, cell-based, Homo sapiens
Description: SANGER: Inhibition of human Saos-2 cell growth in a cell viability assay.

SMILES | IC50
CC1(C)CNc2cc(NC(=O)c3cccnc3NCc3ccncc3)ccc21 [MOTESANIB] | > 2000 nM

The compounds below were run on MKN-7 (assay: cells). Conditions: Homo sapiens, MKN-7.
Assay type: functional, cell-based, Homo sapiens
Description: SANGER: Inhibition of human MKN7 cell growth in a cell viability assay.

SMILES | IC50
CC1(C)CNc2cc(NC(=O)c3cccnc3NCc3ccncc3)ccc21 [MOTESANIB] | > 2000 nM

What follows are compounds tested on NCI-H2405 (assay: cells). Conditions: Homo sapiens, NCI-H2405.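 Note: growth inhibition of the human cell line, read out with a cell viability assay.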
Assay type: functional, cell-based, Homo sapiens
Description: SANGER: Inhibition of human NCI-H2405 cell growth in a cell viability assay.

SMILES | IC50
CC1(C)CNc2cc(NC(=O)c3cccnc3NCc3ccncc3)ccc21 [MOTESANIB] | > 2000 nM

What follows are compounds tested on ACHN (assay: cells). Conditions: Homo sapiens, ACHN.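 Note: cell viability read-out used to gauge how strongly growth of human ACHN cells is suppressed.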
Assay type: functional, cell-based, Homo sapiens
Description: SANGER: Inhibition of human ACHN cell growth in a cell viability assay.

SMILES | IC50
CC1(C)CNc2cc(NC(=O)c3cccnc3NCc3ccncc3)ccc21 [MOTESANIB] | > 2000 nM

The compounds below were run on Detroit 562 (assay: cells). Conditions: Homo sapiens, Detroit 562.
Assay type: functional, cell-based, Homo sapiens
Description: SANGER: Inhibition of human Detroit562 cell growth in a cell viability assay.

SMILES | IC50
CC1(C)CNc2cc(NC(=O)c3cccnc3NCc3ccncc3)ccc21 [MOTESANIB] | > 2000 nM

Each compound was assayed on SCC-9 (assay: cells). Conditions: Homo sapiens, SCC-9.
Assay type: functional, cell-based, Homo sapiens
Description: SANGER: Inhibition of human SCC-9 cell growth in a cell viability assay.

SMILES | IC50
CC1(C)CNc2cc(NC(=O)c3cccnc3NCc3ccncc3)ccc21 [MOTESANIB] | > 2000 nM

Each compound was assayed on NCI-H2452 (assay: cells). Conditions: Homo sapiens, NCI-H2452.
Assay type: functional, cell-based, Homo sapiens
Description: SANGER: Inhibition of human NCI-H2452 cell growth in a cell viability assay.

SMILES | IC50
CC1(C)CNc2cc(NC(=O)c3cccnc3NCc3ccncc3)ccc21 [MOTESANIB] | > 2000 nM

Each compound was assayed on HT1197 (assay: cells). Conditions: Homo sapiens, HT1197.
Assay type: functional, cell-based, Homo sapiens, HT-1197
Description: SANGER: Inhibition of human HT-1197 cell growth in a cell viability assay.

SMILES | IC50
CC1(C)CNc2cc(NC(=O)c3cccnc3NCc3ccncc3)ccc21 [MOTESANIB] | > 2000 nM

Each compound was assayed on C3A (assay: cells). Conditions: Homo sapiens, C3A.
Assay type: functional, cell-based, Homo sapiens
Description: SANGER: Inhibition of human C3A cell growth in a cell viability assay.

SMILES | IC50
CC1(C)CNc2cc(NC(=O)c3cccnc3NCc3ccncc3)ccc21 [MOTESANIB] | > 2000 nM

These compounds were tested on NCI-H727 (assay: cells). Conditions: Homo sapiens, NCI-H727.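 Note: growth inhibition of human NCI-H727 cells, read out with a cell viability assay.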
Assay type: functional, cell-based, Homo sapiens
Description: SANGER: Inhibition of human NCI-H727 cell growth in a cell viability assay.

SMILES | IC50
CC1(C)CNc2cc(NC(=O)c3cccnc3NCc3ccncc3)ccc21 [MOTESANIB] | > 2000 nM

Reference: ChEMBL document CHEMBL1201861, “Genomics of Drug Sensitity in Cancer screening data, Wellcome Trust Sanger Institute”
